13 molecules from patent US20230295118A1 (EnhancedBio Inc., priority 2022, published 2023) can be followed below.

Format in all cases: cell-based
One experiment deals with T1, CDK6 (Homo sapiens, UniProt Q00534).
T1 construct: endogenous in cells
The experiment is described as follows: CDK6 degradation (DC50, Dmax).

Experiment [1] concerns mantle cell lymphoma cell (Mino or JeKo-1). Put plainly: Antiproliferative effect, MTS cell viability assay. The gist of the method: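 Mino cells treated with compounds at 0, 0.0001, 0.001, 0.01, 0.1, 1 μM for 72 h; palbociclib and abemaciclib as positive controls. Viability by MTS, formazan absorbance read at 490 nm.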
On the technique in general: Formazan colour is commonly taken as a measure of viable cells.

Another experiment addresses T2, CDK4 (Homo sapiens, UniProt P11802).
T2 construct: endogenous in cells
The experiment is described as follows: CDK4 degradation (DC50, Dmax).

The mark [2] stands for this setting: 72 h, mantle cell lymphoma cell (Mino or JeKo-1), MTS assay, read-out: IC50 (anti-proliferation).

Like-named read-outs stand apart in the source and are kept apart here.

T1 sequence (Q00534 whole entry): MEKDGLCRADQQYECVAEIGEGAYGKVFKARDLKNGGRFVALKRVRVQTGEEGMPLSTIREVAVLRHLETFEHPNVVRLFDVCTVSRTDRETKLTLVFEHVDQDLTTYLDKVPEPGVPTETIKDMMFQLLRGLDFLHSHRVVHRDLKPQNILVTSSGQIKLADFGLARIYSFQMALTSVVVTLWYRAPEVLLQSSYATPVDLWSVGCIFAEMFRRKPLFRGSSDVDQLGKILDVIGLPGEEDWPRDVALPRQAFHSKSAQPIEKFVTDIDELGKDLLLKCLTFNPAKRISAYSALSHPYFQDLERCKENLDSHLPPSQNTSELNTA
T2 sequence (P11802 whole entry): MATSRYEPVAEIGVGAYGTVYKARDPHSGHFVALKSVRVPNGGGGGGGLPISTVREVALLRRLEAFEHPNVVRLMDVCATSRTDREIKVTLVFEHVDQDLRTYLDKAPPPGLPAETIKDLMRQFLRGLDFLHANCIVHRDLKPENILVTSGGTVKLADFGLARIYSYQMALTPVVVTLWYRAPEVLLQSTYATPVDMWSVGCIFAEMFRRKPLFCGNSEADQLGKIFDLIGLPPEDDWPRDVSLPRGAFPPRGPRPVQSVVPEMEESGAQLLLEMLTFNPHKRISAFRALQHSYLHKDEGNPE

For orientation: DC50 means the concentration at which degradation of the target reaches its halfway point. As a reminder, the Dmax is the largest share of the target that was removed. Higher therefore signals a fuller loss of target. As for `CC(=O)c1c(C)c2cnc(Nc3ccc(N4CCN(CC5CN(c6cccc7c6C(=O)N(C6CCC(=O)NC6=O)C7=O)C5)CC4)cn3)nc2n(C2CCCC2)c1=O` (stereo not drawn) [Compound 81, 4-(3-((4-(6-((6-acetyl-8-cyclopentyl-5-methyl-7-oxo-7,8-dihydropyrido[2,3-d]pyrimidin-2-yl)amino)pyridin-3-yl)piperazin-1-yl)methyl)azetidin-1-yl)-2-(2,6-dioxopiperidin-3-yl) isoindoline-1,3-dione], the DC50 at CDK6 and on CDK4 was 50 to 200 nM throughout. For the same molecule, the Dmax at CDK6 and on CDK4 was above 80% each time. For the same molecule, in experiment [1] (setting [2]), the IC50 was below 50 nM.

On CDK6, `CC(=O)c1c(C)c2cnc(Nc3ccc(N4CCN(CC5CCN(C(=O)N6CCC(C7CCN(c8ccc9c(c8)C(=O)N(C8CCC(=O)NC8=O)C9=O)CC7)CC6)CC5)CC4)cn3)nc2n(C2CCCC2)c1=O` (stereo not drawn) [Compound 82, 5-(1′-(4-((4-(6-((6-acetyl-8-cyclopentyl-5-methyl-7-oxo-7,8-dihydropyrido[2,3-d]pyrimidin-2-yl)amino)pyridin-3-yl)piperazin-1-yl)methyl)piperidine-1-carbonyl)-[4,4′-bipiperidin]-1-yl)-2-(2,6-dioxopiperidin-3-yl) isoindoline-1,3-dione] yielded a DC50 above 200 nM and a Dmax above 50%. For the same molecule, the IC50 in experiment [1] (setting [2]) was above 200 nM. On CDK4, the DC50 is above 200 nM and the Dmax was above 50%.

With `CC(=O)c1c(C)c2cnc(Nc3ccc(N4CCN(CC5CCN(C(=O)N6CCC(CCN7CCN(c8ccc9c(c8)C(=O)N(C8CCC(=O)NC8=O)C9=O)CC7)CC6)CC5)CC4)cn3)nc2n(C2CCCC2)c1=O` (stereo not drawn) [Compound 83, 5-(4-(2-(1-(4-((4-(6-((6-acetyl-8-cyclopentyl-5-methyl-7-oxo-7,8-dihydropyrido[2,3-d]pyrimidin-2-yl)amino)pyridin-3-yl)piperazin-1-yl)methyl)piperidine-1-carbonyl)piperidin-4-yl)ethyl)piperazin-1-yl)-2-(2,6-dioxopiperidin-3-yl) isoindoline-1,3-dione], on CDK6, the DC50 is above 200 nM and the Dmax was above 50%. The IC50 in experiment [1] (setting [2]) was above 200 nM. Besides, on CDK4, the DC50 was above 200 nM and the Dmax is above 50%.

With `CC(=O)c1c(C)c2cnc(Nc3ccc(N4CCN(CC5CCN(C(=O)N6CCC(CN7CCN(c8ccc9c(c8)C(=O)N(C8CCC(=O)NC8=O)C9=O)CC7)CC6)CC5)CC4)cn3)nc2n(C2CCCC2)c1=O` (stereo not drawn) [Compound 84, 5-(4-((1-(4-((4-(6-((6-acetyl-8-cyclopentyl-5-methyl-7-oxo-7,8-dihydropyrido[2,3-d]pyrimidin-2-yl)amino)pyridin-3-yl)piperazin-1-yl)methyl)piperidine-1-carbonyl)piperidin-4-yl)methyl)piperazin-1-yl)-2-(2,6-dioxopiperidin-3-yl) isoindoline-1,3-dione], on CDK6, the 50% degradation concentration (DC50) was in the range of 50 to 200 nM and the Dmax is above 80%. The IC50 in experiment [1] (setting [2]) was below 50 nM. Further, at CDK4, the DC50 fell in the range of 50 to 200 nM and the Dmax is above 80%.

Take `CC(=O)c1c(C)c2cnc(Nc3ccc(N4CCN(C5CCN(C(=O)N6CCC(C7CCN(c8ccc9c(c8)C(=O)N(C8CCC(=O)NC8=O)C9=O)CC7)CC6)CC5)CC4)cn3)nc2n(C2CCCC2)c1=O` (stereo not drawn) [Compound 85, 5-(1′-(4-(4-(6-((6-acetyl-8-cyclopentyl-5-methyl-7-oxo-7,8-dihydropyrido[2,3-d]pyrimidin-2-yl)amino)pyridin-3-yl)piperazin-1-yl)piperidine-1-carbonyl)-[4,4′-bipiperidin]-1-yl)-2-(2,6-dioxopiperidin-3-yl) isoindoline-1,3-dione]: at CDK6, the half-maximal degradation concentration (DC50) was above 200 nM and the Dmax is above 60%. In experiment [1] (setting [2]), the IC50 was above 200 nM. At CDK4, this molecule displayed a 50% degradation concentration (DC50) above 200 nM and a Dmax above 60%.

Turning to `CC(=O)c1c(C)c2cnc(Nc3ccc(N4CCN(C5CCN(C(=O)N6CCC(CN7CCN(c8ccc9c(c8)C(=O)N(C8CCC(=O)NC8=O)C9=O)CC7)CC6)CC5)CC4)cn3)nc2n(C2CCCC2)c1=O` (stereo not drawn) [Compound 86, 5-(4-((1-(4-(4-(6-((6-acetyl-8-cyclopentyl-5-methyl-7-oxo-7,8-dihydropyrido[2,3-d]pyrimidin-2-yl)amino)pyridin-3-yl)piperazin-1-yl)piperidine-1-carbonyl)piperidin-4-yl)methyl)piperazin-1-yl)-2-(2,6-dioxopiperidin-3-yl) isoindoline-1,3-dione], the DC50 at CDK6 and at CDK4 was 50 to 200 nM each time. In addition, the Dmax on CDK6 and on CDK4 was above 60% in each case. Moreover, the IC50 in experiment [1] (setting [2]) lay in the range of 50 to 200 nM.

On CDK6, `CC(=O)c1c(C)c2cnc(Nc3ccc(N4CCN(C5CCN(C(=O)N6CCC(CCN7CCN(c8ccc9c(c8)C(=O)N(C8CCC(=O)NC8=O)C9=O)CC7)CC6)CC5)CC4)cn3)nc2n(C2CCCC2)c1=O` (stereo not drawn) [Compound 87, 5-(4-(2-(1-(4-(4-(6-((6-acetyl-8-cyclopentyl-5-methyl-7-oxo-7,8-dihydropyrido[2,3-d]pyrimidin-2-yl)amino)pyridin-3-yl)piperazin-1-yl)piperidine-1-carbonyl)piperidin-4-yl)ethyl)piperazin-1-yl)-2-(2,6-dioxopiperidin-3-yl) isoindoline-1,3-dione] registered a 50% degradation concentration (DC50) of 50 to 200 nM and a Dmax above 60%. For the same molecule, in experiment [1] (setting [2]), the IC50 fell in the range of 50 to 200 nM. For the same molecule, on CDK4, the DC50 lay in the range of 50 to 200 nM and the Dmax was above 60%.

In the case of `CC(=O)c1c(C)c2cnc(Nc3ccc(N4CCN(C5CCN(C(=O)N6CCC(N7CCN(c8ccc9c(c8)C(=O)N(C8CCC(=O)NC8=O)C9=O)CC7)CC6)CC5)CC4)cn3)nc2n(C2CCCC2)c1=O` (stereo not drawn) [Compound 88, 5-(4-(1-(4-(4-(6-((6-acetyl-8-cyclopentyl-5-methyl-7-oxo-7,8-dihydropyrido[2,3-d]pyrimidin-2-yl)amino)pyridin-3-yl)piperazin-1-yl)piperidine-1-carbonyl)piperidin-4-yl)piperazin-1-yl)-2-(2,6-dioxopiperidin-3-yl) isoindoline-1,3-dione], the DC50 on CDK6 and on CDK4 was above 200 nM throughout. The Dmax at CDK6 was above 50%; at CDK4, above 60%. Moreover, the IC50 in experiment [1] (setting [2]) is above 200 nM.

On CDK6, `CC(=O)c1c(C)c2cnc(Nc3ccc(N4CCN(CC5CCN(C(=O)N6CCC(N7CCN(c8ccc9c(c8)C(=O)N(C8CCC(=O)NC8=O)C9=O)CC7)CC6)CC5)CC4)cn3)nc2n(C2CCCC2)c1=O` (stereo not drawn) [Compound 89, 5-(4-(1-(4-((4-(6-((6-acetyl-8-cyclopentyl-5-methyl-7-oxo-7,8-dihydropyrido[2,3-d]pyrimidin-2-yl)amino)pyridin-3-yl)piperazin-1-yl)methyl)piperidine-1-carbonyl)piperidin-4-yl)piperazin-1-yl)-2-(2,6-dioxopiperidin-3-yl)isoindoline-1,3-dione] had a DC50 above 200 nM and a Dmax above 60%. Besides, in experiment [1] (setting [2]), the IC50 lay in the range of 50 to 200 nM. On CDK4, this molecule displayed a DC50 of 50 to 200 nM and a Dmax above 60%.

In the case of `Cc1nc2c(F)cc(-c3nc(Nc4ccc(CN5CCN(CCNc6ccc7c(c6)C(=O)N(C6CCC(=O)NC6=O)C7)CC5)cn4)ncc3F)cc2n1C(C)C` (stereo not drawn) [Compound 91, 3-(6-((2-(4-((6-((5-fluoro-4-(4-fluoro-1-isopropyl-2-methyl-1H-benzo[d]imidazol-6-yl)pyrimidin-2-yl)amino)pyridin-3-yl)methyl)piperazin-1-yl)ethyl)amino)-1-oxoisoindolin-2-yl)piperidine-2,6-dione], the DC50 at CDK6 and on CDK4 was below 50 nM throughout. The Dmax on CDK6 and at CDK4 was above 80% in each case. In addition, the IC50 in experiment [1] (setting [2]) is below 50 nM.

Turning to `Cc1nc2c(F)cc(-c3nc(Nc4ccc(CN5CCN(CCNc6cccc7c6C(=O)N(C6CCC(=O)NC6=O)C7=O)CC5)cn4)ncc3F)cc2n1C(C)C` (stereo not drawn) [Compound 92, 2-(2,6-dioxopiperidin-3-yl)-4-((2-(4-((6-((5-fluoro-4-(4-fluoro-1 isopropyl-2-methyl-1H-benzo[d]imidazol-6-yl)pyrimidin-2-yl)amino)pyridin-3-yl)methyl)piperazin-1-yl)ethyl)amino) isoindoline-1,3-dione], at CDK6, the DC50 is below 50 nM and the Dmax is above 80%. In addition, the IC50 in experiment [1] (setting [2]) is below 50 nM. Besides, the “inhibition of cell proliferation of Mino cells” value in experiment [1] (Mino cells; 0-1 μM; 72 h; result in words) is “dose-dependent inhibition of cell proliferation”. For the same molecule, on CDK4, the DC50 was 50 to 200 nM and the Dmax is above 80%.

As to `Cc1nc2c(F)cc(-c3nc(Nc4ccc(CN5CCN(CCNc6cccc7c6CN(C6CCC(=O)NC6=O)C7=O)CC5)cn4)ncc3F)cc2n1C(C)C` (stereo not drawn) [Compound 93], at CDK6, the DC50 lay within 50 to 200 nM and the “Dmax CDK6” value was “A (A: >80%)”. For the same molecule, in experiment [1] (mantle cell lymphoma cell (Mino or JeKo-1); MTS assay, 72 h; read-out: IC50 (anti-proliferation)), the IC50 was below 50 nM. In addition, at CDK4, the 50% degradation concentration (DC50) is 50 to 200 nM and the “Dmax CDK4” value is given as “A (A: >80%)”.

At CDK6, `Cc1nc2c(F)cc(-c3nc(Nc4ccc(CN5CCN(CC6CN(c7ccc8c(c7)CN(C7CCC(=O)NC7=O)C8=O)C6)CC5)cn4)ncc3F)cc2n1C(C)C` (stereo not drawn) [Compound 95, 3-(5-(3-((4-((6-((5-fluoro-4-(4-fluoro-1-isopropyl-2-methyl-1H-benzo[d]imidazol-6-yl)pyrimidin-2-yl)amino)pyridin-3-yl)methyl)piperazin-1-yl)methyl)azetidin-1-yl)-1-oxoisoindolin-2-yl)piperidine-2,6-dione] showed a DC50 below 50 nM and a Dmax above 80%. Besides, the IC50 in experiment [1] (setting [2]) is below 50 nM. On CDK4, this molecule showed a half-maximal degradation concentration (DC50) below 50 nM and a Dmax above 80%.
